Source: EP0672419A1, “BLOOD PRESSURE REGULATOR” (Asahi Kasei Kogyo Kabushiki Kaisha, priority 1991, dated 1995)

Legend:
adult mongrel dogs [1] = assay: Induced hypotension in ten halothane-anesthetized dogs, average arterial blood pressure kept at 60 mmHg for 60 min (Example 6); assay type: in vivo, dog; settings: mean ± S.D.
Procedure: Adult mongrel dog, mean body weight 12.7 ± 3.1 kg, was anesthesized with pentobarbital 25 mg/kg, intratarcheally cannulated and maintained anesthetic condition by 0.87% halothane-oxygen (1 MAC, minimum anesthetic concentration). Respiration was controlled, by using respirator (Harvard Corp., Model 613E ) at Paco₂ 35±5 mmHg.
Catheters were introduced to right femoral vein and artery for monitering arterial blood pressure, arterial blood gas analysis and infusion, and left cardiac catheter was introduced to left femoral […] to monitor left ventricular pressure. The changes in left ventricular pressure were differentiated continuously using a pressure processor (Nihon Koden Co., EQ-601G) to measure a maximum left ventricular systolic ratio (LV dp/dt max). The active ingredient of the present invention was administered to left femoral vein. Pulmonary arterial catheter (7F, Swan-Ganz® catheter) was introduced through right external jugular vein to monitor pulmonary artery pressure (PAP), paulmonary arterial wedge pressure (pulmonary capillary wedge pressure, PCWP) and cardiac output (CO). Pressure was monitored by using disporsable pressure monitoring kit (Gould Corp.), and electrocardiogram, arteriala pressure, left ventricle pressure (LVP) and maximum left ventricular systolic ratio (LV dp/dt max) were monitored by polygraph (Nihon Koden Co.) . Cardiac output (CO) was measured by thermal dilution method using cardiac output monitor (Nihon Koden Co Model MTC6210). Blood gas analysis was made by using automatic blood gas analyser (Radiometer Corp. ABL3). Mean artery pressure (MAP), cardiac index(CI) stroke volume index (SI), systemic vascular resistance (SVR), pulmonary vascular resistance (PVR), left ventricle stroke work index (LVSWI) and coronary perfusion pressure (CPP) were calculated by standard calculation equations, respectively.
To maintain low blood pressure, the active ingredient was intraveneously administered for 60 minutes with maintaining maximum dose at 40 µg/kg and adjusting to maintain mean arteraial pressure at 50 mmHg. Physiological saline was used for maintenance infusion and administered in combination with the active ingredient at 7 ml/kg/hr. At blood sampling two fold volume of hydroxyethylstarch (6-HES) was supplementary administered. Body temperature was maintained at 37 ± 1°C by covering with blanket.
Example 5 was repeated by substantially almost same manner using ten adult mongrel dogs, mean body weight 14.7±2.1 kg, applying same anesthetic condition with maintaining artificially hypotensive with average arterial blood pressure at 60 mmHg for 60 min., and administering the active ingredient desalanyl-deamino-c-CGRP.
A value at time more than 60 minutes passed after completing the start of the experiment and stabilizing a depth of anesthesia and blood flow, was set as control (S₁). Monitorings were performed at 30 min. and 60 min. under reduced blood pressure in induced hypotension, and at 10 min. and 30 min. after terminating the reduced blood pressure in induced hypotension (after stopping administration), for totally five points of time.
Results are shown by mean ± S.D.
Amount of the active ingredient for maintaining average arterial blood pressure at 60 mmHg for 60 minutes was 5 µg-115 µg/kg.

adult mongrel dogs [2] = assay: Phenylephrine-induced hypertension in four anesthetized dogs (Example 8); assay type: in vivo, dog; settings: 10 µg/kg/hr on top of phenylephrine 10 µg/kg/min
Procedure: Example 6 was repeated by substantially almost same manner using four adult mongrel dogs, mean body weight 12.3±3.0 kg, applying same anesthetic condition. After setting up the experiment at more than 60 minutes passing and confirming to stabilize the depth of anesthesia and blood flow, phenylephrine (hypertensor) 10 µg/kg/min was administered.
Further after 10 minutes passed, the active ingredient, desalanyl-deamino-c-CGRP 10 µg/kg/hr was administered and at 10 min. and 20 min. after administration of the active ingredient, heart rate (HR) and mean a artery pressure (MAP) were measured.

[3] = after terminating reduced blood pressure 10 min.
[4] = after terminating reduced blood pressure 30 min.
[5] = reduced blood pressure 30 min., MAP kept at 60 mmHg
[6] = reduced blood pressure 60 min., MAP kept at 60 mmHg
[7] = after administ. of CGRP 10 min(20min)
[8] = after administ. of CGRP 20 min(30min)

Substance: desalanyl-deamino-c-CGRP
- CI: Cardiac index (adult mongrel dogs [1]; [3]): 4.025±0.685 ** 1/min/m²
- CO: Cardiac output (adult mongrel dogs [1]; [3]): 2.751±0.438 * 1/min
- CPP: Coronary perfusion pressure (adult mongrel dogs [1]; [3]): 50.5±5.5 mmHg
- CVP: Central venous pressure (adult mongrel dogs [1]; [3]): 2.9±1.5 mmHg
- DAP: Diastolic artery pressure (adult mongrel dogs [1]; [3]): 59.2±5.1 mmHg
- DPAP: Diastolic pulmonary artery pressure (adult mongrel dogs [1]; [3]): 11.3±5.2 mmHg
- EtCO₂: Expiration terminal CO₂ pressure (adult mongrel dogs [1]; [3]): 39.5±5.8 mmHg
- HR: Heart rate (adult mongrel dogs [1]; [3]): 158.8±33.8 beat/min
- LV dp/dt max: maximum left ventricular systolic ratio (adult mongrel dogs [1]; [3]): 3370.0±783.2 mmHg/sec
- LVEP: Left ventricle end pressure (adult mongrel dogs [1]; [3]): 0.1±0.3 mmHg
- LVP: Left ventricle pressure (adult mongrel dogs [1]; [3]): 119.5±16.3 mmHg
- LVSWI: Left ventricle stroke work index (adult mongrel dogs [1]; [3]): 23.970±6.998 g.m/beat/m²
- MAP: Mean artery pressure (adult mongrel dogs [1]; [3]): 75.7±4.3 mmHg
- MPAP: Mean pulmonary artery pressure (adult mongrel dogs [1]; [3]): 18.3±6.0 mmHg
- PCWP: Pulmonary capillary wedge pressure (adult mongrel dogs [1]; [3]): 9.2±4.1 mmHg
- PVR: Pulmonary vascular resistance (adult mongrel dogs [1]; [3]): 273.30±100.09 dynes · sec/cm⁵
- RPP: Rate pressure products (adult mongrel dogs [1]; [3]): 14920.0±3480.0 mmHg.beat/min
- RVSWI: Right ventricle stroke work index (adult mongrel dogs [1]; [3]): 5.209±1.501 g.m/beat/m²
- SAP: Systolic artery pressure (adult mongrel dogs [1]; [3]): 94.4±7.2 mmHg
- SI: Stroke index (adult mongrel dogs [1]; [3]): 26.300±6.720 ml/HR/m²
- SPAP: Systolic pulmonary artery pressure (adult mongrel dogs [1]; [3]): 26.8±7.2 mmHg
- SV: Stroke volumes (adult mongrel dogs [1]; [3]): 18.2 ± 5.63 mL/beat
- SVR: Systemic vascular resistance (adult mongrel dogs [1]; [3]): 2162.0±419.2 dynes · sec/cm⁵
- CI: Cardiac index (adult mongrel dogs [1]; [4]): 3.638±0.587 1/min/m²
- CO: Cardiac output (adult mongrel dogs [1]; [4]): 2.487 ± 0.378 min⁻¹
- CPP: Coronary perfusion pressure (adult mongrel dogs [1]; [4]): 63.5±5.3 mmHg
- CVP: Central venous pressure (adult mongrel dogs [1]; [4]): 3.2±1.1 mmHg
- DAP: Diastolic artery pressure (adult mongrel dogs [1]; [4]): 74.1±4.7 mmHg
- DPAP: Diastolic pulmonary artery pressure (adult mongrel dogs [1]; [4]): 11.3±5.4 mmHg
- EtCO₂: Expiration terminal CO₂ pressure (adult mongrel dogs [1]; [4]): 39.3±5.9 mmHg
- HR: Heart rate (adult mongrel dogs [1]; [4]): 151.6±27.9 beat/min
- LV dp/dt max: maximum left ventricular systolic ratio (adult mongrel dogs [1]; [4]): 3220.0±708.4 mmHg/sec
- LVEP: Left ventricle end pressure (adult mongrel dogs [1]; [4]): 0.0±0.0 mmHg
- LVP: Left ventricle pressure (adult mongrel dogs [1]; [4]): 132.3±20.0 mmHg
- LVSWI: Left ventricle stroke work index (adult mongrel dogs [1]; [4]): 27.680±7.370 g.m/beat/m²
- MAP: Mean artery pressure (adult mongrel dogs [1]; [4]): 92.8±6.3 mmHg
- MPAP: Mean pulmonary artery pressure (adult mongrel dogs [1]; [4]): 18.7±6.3 mmHg
- PCWP: Pulmonary capillary wedge pressure (adult mongrel dogs [1]; [4]): 10.6±4.5 mmHg
- PVR: Pulmonary vascular resistance (adult mongrel dogs [1]; [4]): 269.10±109.58 dynes · sec/cm⁵
- RPP: Rate pressure products (adult mongrel dogs [1]; [4]): 18100.0±3938.4 mmHg.beat/min
- RVSWI: Right ventricle stroke work index (adult mongrel dogs [1]; [4]): 4.882±1.138 g.m/beat/m²
- SAP: Systolic artery pressure (adult mongrel dogs [1]; [4]): 119.4±10.1 mmHg
- SI: Stroke index (adult mongrel dogs [1]; [4]): 24.760±6.720 ml/HR/m²
- SPAP: Systolic pulmonary artery pressure (adult mongrel dogs [1]; [4]): 27.4±7.2 mmHg
- SV: Stroke volumes (adult mongrel dogs [1]; [4]): 17 ± 5.07 mL/beat
- SVR: Systemic vascular resistance (adult mongrel dogs [1]; [4]): 2961.0±700.9 dynes · sec/cm⁵
- CI: Cardiac index (adult mongrel dogs [1]; [5]): 3.418±0.692 1/min/m²
- CO: Cardiac output (adult mongrel dogs [1]; [5]): 2.348 ± 0.528 min⁻¹
- CPP: Coronary perfusion pressure (adult mongrel dogs [1]; [5]): 38.3±4.5 mmHg
- CVP: Central venous pressure (adult mongrel dogs [1]; [5]): 2.5±1.1 mmHg
- DAP: Diastolic artery pressure (adult mongrel dogs [1]; [5]): 47.3±2.8 mmHg
- DPAP: Diastolic pulmonary artery pressure (adult mongrel dogs [1]; [5]): 9.9±4.0 mmHg
- EtCO₂: Expiration terminal CO₂ pressure (adult mongrel dogs [1]; [5]): 38.5±5.6 mmHg
- HR: Heart rate (adult mongrel dogs [1]; [5]): 149.3±31.7 beat/min
- LV dp/dt max: maximum left ventricular systolic ratio (adult mongrel dogs [1]; [5]): 3070.0±771.8 mmHg/sec
- LVEP: Left ventricle end pressure (adult mongrel dogs [1]; [5]): 0.0±0.0 mmHg
- LVP: Left ventricle pressure (adult mongrel dogs [1]; [5]): 102.7±14.1 mmHg
- LVSWI: Left ventricle stroke work index (adult mongrel dogs [1]; [5]): 16.906±5.750 g.m/beat/m²
- MAP: Mean artery pressure (adult mongrel dogs [1]; [5]): 60.4±0.7 mmHg
- MPAP: Mean pulmonary artery pressure (adult mongrel dogs [1]; [5]): 15.6±5.3 mmHg
- PCWP: Pulmonary capillary wedge pressure (adult mongrel dogs [1]; [5]): 9.0±4.0 mmHg
- PVR: Pulmonary vascular resistance (adult mongrel dogs [1]; [5]): 231.10±80.62 dynes · sec/cm⁵
- RPP: Rate pressure products (adult mongrel dogs [1]; [5]): 11357.0±2260.5 mmHg.beat/min
- RVSWI: Right ventricle stroke work index (adult mongrel dogs [1]; [5]): 3.979±1.239 g.m/beat/m²
- SAP: Systolic artery pressure (adult mongrel dogs [1]; [5]): 76.5±4.8 mmHg
- SI: Stroke index (adult mongrel dogs [1]; [5]): 23.810±6.952 ml/HR/m²
- SPAP: Systolic pulmonary artery pressure (adult mongrel dogs [1]; [5]): 23.0±6.2 mmHg
- SV: Stroke volumes (adult mongrel dogs [1]; [5]): 16.5 ± 5.78 mL/beat
- SVR: Systemic vascular resistance (adult mongrel dogs [1]; [5]): 2054.0±455.6 dynes · sec/cm⁵
- CI: Cardiac index (adult mongrel dogs [1]; [6]): 4.006 ±0.771 ** 1/min/m²
- CO: Cardiac output (adult mongrel dogs [1]; [6]): 2.739 ±0.518 * 1/min
- CPP: Coronary perfusion pressure (adult mongrel dogs [1]; [6]): 38.3±4.9 mmHg
- CVP: Central venous pressure (adult mongrel dogs [1]; [6]): 2.2±1.2 mmHg
- DAP: Diastolic artery pressure (adult mongrel dogs [1]; [6]): 47.7±2.6 mmHg
- DPAP: Diastolic pulmonary artery pressure (adult mongrel dogs [1]; [6]): 11.3±4.9 mmHg
- EtCO₂: Expiration terminal CO₂ pressure (adult mongrel dogs [1]; [6]): 39.8±6.9 mmHg
- HR: Heart rate (adult mongrel dogs [1]; [6]): 154.3 ± 33.8 beat/min
- LV dp/dt max: maximum left ventricular systolic ratio (adult mongrel dogs [1]; [6]): 3210.0±749.0 mmHg/sec
- LVEP: Left ventricle end pressure (adult mongrel dogs [1]; [6]): 0.0±0.0 mmHg
- LVP: Left ventricle pressure (adult mongrel dogs [1]; [6]): 104.7±16.3 mmHg
- LVSWI: Left ventricle stroke work index (adult mongrel dogs [1]; [6]): 18.949±6.280 g.m/beat/m²
- MAP: Mean artery pressure (adult mongrel dogs [1]; [6]): 60.1±0.9 mmHg
- MPAP: Mean pulmonary artery pressure (adult mongrel dogs [1]; [6]): 17.7±5.9 mmHg
- PCWP: Pulmonary capillary wedge pressure (adult mongrel dogs [1]; [6]): 9.4±4.7 mmHg
- PVR: Pulmonary vascular resistance (adult mongrel dogs [1]; [6]): 251.20±97.14 dynes · sec/cm⁵
- RPP: Rate pressure products (adult mongrel dogs [1]; [6]): 11462.0±2765.1 mmHg.beat/min
- RVSWI: Right ventricle stroke work index (adult mongrel dogs [1]; [6]): 5.380±1.747 g.m/beat/m²
- SAP: Systolic artery pressure (adult mongrel dogs [1]; [6]): 74.4±4.9 mmHg
- SI: Stroke index (adult mongrel dogs [1]; [6]): 27.030 ±7.664 ml/HR/m²
- SPAP: Systolic pulmonary artery pressure (adult mongrel dogs [1]; [6]): 25.5±7.3 mmHg
- SV: Stroke volumes (adult mongrel dogs [1]; [6]): 18.5 ± 5.94 mL/beat
- SVR: Systemic vascular resistance (adult mongrel dogs [1]; [6]): 1748.0±409.1 dynes · sec/cm⁵
- HR: Heart rate (adult mongrel dogs [2]; [7]): 103 beats/min
- MAP: Mean artery pressure (adult mongrel dogs [2]; [7]): 104.8 ±2.7 mmHg
- HR: Heart rate (adult mongrel dogs [2]; [8]): 104±2.8 beat/min
- MAP: Mean artery pressure (adult mongrel dogs [2]; [8]): 184±4.9 mmHg
